From US6166091A, “2,3,4-trihydroxycyclopentanone” (Takara Shuzo Co., Ltd., priority 1997, dated 2000)

Assays:
[1] = storage of aqueous cyclopentenone solution, conversion to hydroxycyclopentanone; type: physicochemical; settings: water; aqueous solution stored at 4° C. for 30 days; read-out: cyclopentenone changed to hydroxycyclopentanone in aqueous solution
[2] = tested on: mice; assay: toxicity by oral administration to mice; type: in vivo; settings: oral administration of 100 mg/kg to mice
[3] = standing in aqueous solution, TLC detection of cyclopentenone formed; type: physicochemical; settings: 4 mM in water, 16 hours at 4° C., 37° C. or 45° C.
Method: Hydroxycyclopentanone obtained in Example 2-(2) was dissolved in water to make the concentration 4 mM followed by allowing to stand for 16 hours at 4° C., 37° C. or 45° C. One μl of each of the samples was spotted on a silica gel 60 sheet F254 (manufactured by Merck), developed by the upper layer of a mixture of butyl acetate, acetic acid and water (3:2:2) and detected by means of an orcinol-sulfuric acid method. Thus, 400 mg of orcinol monohydrate (manufactured by Nacalai Tesque; 257-30) was dissolved in 22.8 ml of sulfuric acid, water was added to make 200 ml, the solution was sprayed on the thin layer after the development and heated at 120° C. for 1-2 minutes and the resulting spots were observed.

Structure (SMILES) | degraded at 720 h [1] | toxicity [2] | conversion to cyclopentenone in aqueous solution (TLC spot) [3]
O=C1C=CC(O)C1O (stereo not drawn) [cyclopentenone, 4,5-dihydroxy-2-cyclopenten-1-one] | ~30% | – | –
O=C1CC(O)C(O)C1O (stereo not drawn) [hydroxycyclopentanone, 2,3,4-trihydroxycyclopentanone] | – | no toxicity was noted | a spot for cyclopentenone was noted in all of the samples and the higher the temperature for allowing to stand, the stronger the color of the spot for cyclopentenone
